From PubChem BioAssay (NCI)
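In this assay, cells in 96-well plates receive the compound at five concentrations for 48 hours. Endpoints are linearly interpolated between the surrounding concentrations. The concentration for full growth arrest is given as TGI.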

Experiments:
Assay in all cases: NCI tumour cell line growth inhibition, 48 h
[1] = system: HOP-18 NSCLC
[2] = system: DMS 114 small cell lung
[3] = system: M19-MEL melanoma
[4] = system: P388/ADR leukemia
[5] = system: SN12K1 renal
[6] = system: P388 leukemia
[7] = system: KM20L2 colon
[8] = system: SNB-78 CNS
[9] = system: DLD-1 colon
[10] = system: LXFL 529 NSCLC
[11] = system: RXF-631 renal

| SMILES | TGI [1] | TGI [2] | TGI [3] | TGI [4] | TGI [5] | TGI [6] | TGI [7] | TGI [8] | TGI [9] | TGI [10] | TGI [11] |
| --- | --- | --- | --- | --- | --- | --- | --- | --- | --- | --- | --- |
| CSc1cc(=O)n2c3ccccc3c3ccnc1c32 | 98.2 µM | > 100 µM | > 100 µM | > 100 µM | > 100 µM | > 100 µM | > 100 µM | > 100 µM | > 100 µM |  |  |
| NCCCCNCCCNC(=O)c1nc(-c2nc(CCN)sc2Cl)sc1Cl |  | 52.5 µM | > 100 µM |  |  |  | > 100 µM | > 100 µM | > 100 µM | 11.1 µM |  |
| COC(=O)[C@@H]1CCCCC[C@H]2C(CO)=C(C)C(=O)C12 (some centres undefined) | > 100 µM | > 100 µM | > 100 µM |  |  |  | > 100 µM | > 100 µM | > 100 µM | > 100 µM |  |
| CN(C)CCNC(=O)c1cc(Cl)cc2ccc(-c3ccccc3)nc12 | 12.5 µM | 12.6 µM | 11.4 µM | 7.95 µM | 5.81 µM |  | 13.1 µM | 24.9 µM | 12.9 µM |  |  |
| CC(C)N1CC2CC(CN(C(=O)c3ccccc3)C2)C1 | > 100 µM | > 100 µM | > 100 µM |  |  |  | > 100 µM |  |  | > 100 µM | > 100 µM |
| O=S(=O)(O)c1ccc(N=Nc2ccc(N=Nc3ccc(/C=C/c4ccc(N=[N+]([O-])c5ccc(/C=C/c6ccc(N=Nc7ccc(N=Nc8ccc(S(=O)(=O)O)cc8)cc7)cc6S(=O)(=O)O)c(S(=O)(=O)O)c5)cc4S(=O)(=O)O)c(S(=O)(=O)O)c3)cc2)cc1 | > 100 µM | > 100 µM | > 100 µM | > 100 µM | > 100 µM | > 100 µM | > 100 µM |  | > 100 µM |  |  |
| Cc1cc(C)nc(NS(=O)(=O)c2ccc(Nc3c4ccccc4nc4c(C(=O)N5CCN(CCOS(C)(=O)=O)CC5)cccc34)cc2)n1 |  | > 100 µM | > 100 µM |  |  |  | > 100 µM | > 100 µM | > 100 µM |  |  |
